Measured values reported in the supplement of paper PMC7806825.
± gives the standard deviation of the averaged measurements.

System: McpC ligand-binding domain (Salmonella Typhimurium SL1344)
Assay: protein melting temperature (Tm) in presence of compound (degrees C); higher = more thermal stabilisation (possible ligand binding)
Details: compound stock concentration: 10-20 mM, 2 uL in 10 uL reaction

Cc1ncc(C[n+]2csc(CCOP(=O)(O)OP(=O)(O)O)c2C)c(N)n1 [Thiamine Pyrophosphate]
protein melting temperature (Biolog plate: PM05): 43.7

OP(O)(O)=S [Thiophosphate]
protein melting temperature (Biolog plate: PM04A): 43.88 ± 0.26

O=S(O)(O)=S [Thiosulfate]
protein melting temperature (Biolog plate: PM04A): 42.8

NC(N)=S [Thiourea]
protein melting temperature (Biolog plate: PM04A): 44.6

Cc1cn([C@H]2C[C@H](OP(=O)(O)O)[C@@H](CO)O2)c(=O)[nH]c1=O [Thymidine 3`-Monophosphate]
protein melting temperature (Biolog plate: PM04A): 43.6

Cc1cn([C@H]2C[C@H](O)[C@@H](COP(=O)(O)O)O2)c(=O)[nH]c1=O [Thymidine 5`-Monophosphate]
protein melting temperature (Biolog plate: PM04A): 43.7

Cc1cn([C@H]2C[C@H](O)[C@@H](CO)O2)c(=O)[nH]c1=O [Thymidine]
protein melting temperature (Biolog plate: PM01): 44.6 | protein melting temperature (Biolog plate: PM03B): 45.1 | protein melting temperature (Biolog plate: PM05): 44.7

Cc1c[nH]c(=O)[nH]c1=O [Thymine]
protein melting temperature (Biolog plate: PM03B): 45.1 | protein melting temperature (Biolog plate: PM05): 43

O=C(O)CC(CC(=O)O)C(=O)O [Tricarballylic acid]
protein melting temperature (Biolog plate: PM01): 44.3

CCOP(=O)(OCC)OCC [Triethyl Phosphate]
protein melting temperature (Biolog plate: PM04A): 44.9

O=P1(O)OP(=O)(O)OP(=O)(O)O1 [Trimetaphosphate]
protein melting temperature (Biolog plate: PM04A): 44.7

O=C(CO)[C@@H](O[C@H]1O[C@H](CO)[C@@H](O)[C@H](O)[C@H]1O)[C@H](O)[C@H](O)CO [Turanose]
protein melting temperature (Biolog plate: PM02A): 44.1

CCCCCCCC/C=C\CCCCCCCC(=O)OCCOCC(OCCO)C1OCC(OCCO)C1OCCO (centres undefined) [Tween 80]
protein melting temperature (Biolog plate: PM01): 45.3 | protein melting temperature (Biolog plate: PM05): 43.9

NCCc1ccc(O)cc1 [Tyramine]
protein melting temperature (Biolog plate: PM01): 43.9 | protein melting temperature (Biolog plate: PM03B): 44.8

O=c1cc[nH]c(=O)[nH]1 [Uracil]
protein melting temperature (Biolog plate: PM03B): 45.7 | protein melting temperature (Biolog plate: PM05): 42.7

NC(N)=O [Urea]
protein melting temperature (Biolog plate: PM03B): 46.5

Oc1nc(O)c2nc(O)[nH]c2n1 [Uric acid]
protein melting temperature (Biolog plate: PM03B): 44.4

O=c1ccn([C@@H]2O[C@H](CO)[C@@H](O)[C@H]2OP(=O)(O)O)c(=O)[nH]1 [Uridine 2`-Monophosphate]
protein melting temperature (Biolog plate: PM04A): 43.8

O=c1ccn([C@@H]2O[C@H](CO)[C@@H](OP(=O)(O)O)[C@H]2O)c(=O)[nH]1 [Uridine 3`-Monophosphate]
protein melting temperature (Biolog plate: PM04A): 43.5

O=c1[nH]c(=O)c2nc[nH]c2[nH]1 [Xanthine]
protein melting temperature (Biolog plate: PM03B): 44.5

OC[C@H]1O[C@@H](n2cnc3c(O)nc(O)nc32)[C@H](O)[C@@H]1O [Xanthosine]
protein melting temperature (Biolog plate: PM03B): 44.3

OC[C@@H](O)[C@H](O)[C@@H](O)CO [Xylitol]
protein melting temperature (Biolog plate: PM02A): 44.3

OC[C@H]1O[C@H](O)[C@H](O)[C@@H](O)[C@@H]1O [a-D-Glucose]
protein melting temperature (Biolog plate: PM01): 44.9 | protein melting temperature (Biolog plate: PM05): 42.9

CC[C@H](O)C(=O)O [a-Hydroxybutyric acid]
protein melting temperature (Biolog plate: PM01): 44.6 | protein melting temperature (Biolog plate: PM05): 43.7

O=C1CC[C@@H](C(=O)O)O1 [a-Hydroxyglutaric acid-g-Lactone]
protein melting temperature (Biolog plate: PM01): 45.3

CCCC(=O)C(=O)O [a-Keto-Valeric acid]
protein melting temperature (Biolog plate: PM02A): 44.3

CCC(=O)C(=O)O [a-Ketobutyric acid]
protein melting temperature (Biolog plate: PM01): 43.9 | protein melting temperature (Biolog plate: PM05): 44

CO[C@H]1O[C@H](CO)[C@H](O)[C@H](O)[C@H]1O [a-Methyl-D-Galactoside]
protein melting temperature (Biolog plate: PM01): 44.9

CO[C@H]1O[C@H](CO)[C@@H](O)[C@H](O)[C@H]1O [a-Methyl-D-Glucoside]
protein melting temperature (Biolog plate: PM02A): 44.2

CO[C@H]1O[C@H](CO)[C@@H](O)[C@H](O)[C@@H]1O [a-Methyl-D-Mannoside]
protein melting temperature (Biolog plate: PM02A): 44.9

OC[C@H]1O[C@@H]2O[C@H]3[C@H](O)[C@@H](O)[C@@H](O[C@H]4[C@H](O)[C@@H](O)[C@@H](O[C@H]5[C@H](O)[C@@H](O)[C@@H](O[C@H]6[C@H](O)[C@@H](O)[C@@H](O[C@H]7[C@H](O)[C@@H](O)[C@@H](O[C@H]8[C@H](O)[C@@H](O)[C@@H](O[C@H]1[C@H](O)[C@H]2O)O[C@@H]8CO)O[C@@H]7CO)O[C@@H]6CO)O[C@@H]5CO)O[C@@H]4CO)O[C@@H]3CO [b-Cyclodextrin]
protein melting temperature (Biolog plate: PM02A): 45.4

O=P(O)(O)OC(CO)CO [b-Glycerol Phosphate]
protein melting temperature (Biolog plate: PM04A): 44.3

C[C@@H](O)CC(=O)O [b-Hydroxybutyric acid]
protein melting temperature (Biolog plate: PM02A): 44.6

CO[C@@H]1O[C@H](CO)[C@H](O)[C@H](O)[C@H]1O [b-Methyl-D-Galactoside]
protein melting temperature (Biolog plate: PM02A): 43.7

CO[C@@H]1O[C@H](CO)[C@@H](O)[C@H](O)[C@H]1O [b-Methyl-D-Glucoside]
protein melting temperature (Biolog plate: PM01): 44.7

CO[C@@H]1O[C@H](C(=O)O)[C@@H](O)[C@H](O)[C@H]1O [b-Methyl-D-Glucuronic acid]
protein melting temperature (Biolog plate: PM02A): 44.1

CO[C@@H]1OC[C@@H](O)[C@H](O)[C@H]1O [b-Methyl-D-Xyloside]
protein melting temperature (Biolog plate: PM02A): 44.2

NC(=O)c1ccc[n+](C2OC(COP(=O)([O-])OP(=O)(O)OCC3OC(n4cnc5c(N)ncnc54)C(O)C3O)C(O)C2O)c1 (centres undefined) [b-Nicotinamide Adenine Dinucleotide]
protein melting temperature (Biolog plate: PM05): 44.8

NCCc1ccccc1 [b-Phenylethylamine]
protein melting temperature (Biolog plate: PM03B): 44.6

NCC(=O)CCC(=O)O [d-Amino-levulinic acid]
protein melting temperature (Biolog plate: PM05): 43.8

NCCCCCC(=O)O [e-Amino-N-Caproic acid]
protein melting temperature (Biolog plate: PM03B): 44.4

NCCCC(=O)O [g-Amino-N-Butyric acid]
protein melting temperature (Biolog plate: PM02A): 44.4 | protein melting temperature (Biolog plate: PM03B): 44

OC[C@H]1O[C@@H]2O[C@H]3[C@H](O)[C@@H](O)[C@@H](O[C@H]4[C@H](O)[C@@H](O)[C@@H](O[C@H]5[C@H](O)[C@@H](O)[C@@H](O[C@H]6[C@H](O)[C@@H](O)[C@@H](O[C@H]7[C@H](O)[C@@H](O)[C@@H](O[C@H]8[C@H](O)[C@@H](O)[C@@H](O[C@H]9[C@H](O)[C@@H](O)[C@@H](O[C@H]1[C@H](O)[C@H]2O)O[C@@H]9CO)O[C@@H]8CO)O[C@@H]7CO)O[C@@H]6CO)O[C@@H]5CO)O[C@@H]4CO)O[C@@H]3CO [g-Cyclodextrin]
protein melting temperature (Biolog plate: PM02A): 44.7

O=C(O)CCCO [g-Hydroxybutyric acid]
protein melting temperature (Biolog plate: PM02A): 44.2

OC[C@@H](O)[C@@H](O)CO [i-Erythritol]
protein melting temperature (Biolog plate: PM02A): 43.7

O=C(O)Cc1cccc(O)c1 [m-Hydroxyphenyl Acetic acid]
protein melting temperature (Biolog plate: PM01): 44.9

Nc1ccc(C(=O)O)cc1 [p-Amino-Benzoic acid]
protein melting temperature (Biolog plate: PM05): 43.7

Nc1ccc(S(=O)(=O)O)cc1 [p-Aminobenzene Sulfonic acid]
protein melting temperature (Biolog plate: PM04A): 44.5

O=C(O)Cc1ccc(O)cc1 [p-Hydroxyphenyl Acetic acid]
protein melting temperature (Biolog plate: PM01): 45.3
